Source: patent US10562912B2 (C&C Research Laboratories, priority 2013, dated 2020)

Experiments:
Assay type in all cases: cell-based
[1] = biological target: T1, STAT3 (Homo sapiens, UniProt P40763); assay: STAT3 reporter gene assay (luciferase), LNCaP stable cell line (pSTAT3-TA-luc), IL-6 stimulation
T1 construct: plasmid pSTAT3-TA-luc), which contains a stably operating STAT3 promoter; endogenous in cells
Procedure, shortened: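 LNCaP cells stably carrying pSTAT3-TA-luc, in RPMI1640 with 3% DCC-FBS, were treated with compound and then stimulated with 10 ng/mL IL-6 for 24–48 h at 37 °C. Luciferase activity was measured in lysates. A parallel plate measured viability by CellTiter-Glo, with stimulated 0.1% DMSO wells as the positive control.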

[2] = test system: MDA-MB-231; assay: Cell growth inhibition assay, breast cancer cell line MDA-MB-231; conditions: Homo sapiens; MDA-MB-231 breast cancer cell line, 5,000 cells/well
[3] = test system: LNCaP; assay: Cell growth inhibition assay, prostate cancer cell line LNCaP (medium with 10 ng/mL IL-6); conditions: Homo sapiens, medium supplemented with 10 ng/mL of IL-6, 10,000 cells/well
[4] = test system: DU-145; assay: Cell growth inhibition assay, prostate cancer cell line DU-145; conditions: Homo sapiens, DU-145 prostate cancer cell line
Procedure, shortened: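 Readout was CellTiter-Glo luminescence after 72–96 h of compound exposure at 37 °C, 5% CO2. Plating density was 3,000 cells/well for DU-145 and HCT116 and 5,000 cells/well for SW626. Controls were 0.1% DMSO wells and medium-only wells.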

T1 sequence (P40763 whole entry): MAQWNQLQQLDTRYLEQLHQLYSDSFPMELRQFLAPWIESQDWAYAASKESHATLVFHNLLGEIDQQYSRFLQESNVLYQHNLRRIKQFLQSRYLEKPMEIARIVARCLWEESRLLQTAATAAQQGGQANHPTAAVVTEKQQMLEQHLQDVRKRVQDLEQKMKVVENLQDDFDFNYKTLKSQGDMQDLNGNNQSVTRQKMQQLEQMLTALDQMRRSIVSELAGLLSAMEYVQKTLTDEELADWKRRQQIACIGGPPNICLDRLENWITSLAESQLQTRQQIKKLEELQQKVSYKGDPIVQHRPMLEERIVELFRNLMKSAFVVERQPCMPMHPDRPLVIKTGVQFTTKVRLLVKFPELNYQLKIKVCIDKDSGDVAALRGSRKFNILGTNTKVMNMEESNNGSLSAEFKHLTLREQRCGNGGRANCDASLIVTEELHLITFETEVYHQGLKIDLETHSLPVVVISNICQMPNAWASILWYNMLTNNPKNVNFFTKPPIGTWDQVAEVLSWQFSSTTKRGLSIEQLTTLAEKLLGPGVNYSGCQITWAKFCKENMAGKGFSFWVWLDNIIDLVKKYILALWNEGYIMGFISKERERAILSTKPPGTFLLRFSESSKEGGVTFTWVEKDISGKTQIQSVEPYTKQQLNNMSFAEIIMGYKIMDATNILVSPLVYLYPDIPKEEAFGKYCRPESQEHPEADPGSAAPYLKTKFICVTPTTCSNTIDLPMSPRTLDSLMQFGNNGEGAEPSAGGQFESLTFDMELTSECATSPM

Compound: CS(=O)(=O)Nc1ccc2sc(C(=O)Nc3cc(Br)cc(C4(c5ccc(F)cc5F)CC4)c3)cc2c1 [Example 426, N-(3-bromo-5-(1-(2,4-difluorophenyl)cyclopropyl)phenyl)-5-(methylsulfonamido)benzo[b]thiophene-2-carboxamide]
- IC50 [1]: 0.082 µM
- IC50 [2]: 0.074 µM
- IC50 [3]: 0.3 µM
- IC50 [4]: 0.13 µM

Compound: CN1CCN(Cc2cccc(C(C)(C)c3cc(Br)cc(NC(=O)c4cc5cc(NS(C)(=O)=O)ccc5s4)c3)c2)CC1 [Example 115, N-(3-bromo-5-(2-(3-((4-methylpiperazin-1-yl)methyl)phenyl)propan-2-yl)phenyl)-5-(methylsulfonamido)benzo[b]thiophene-2-carboxamide]
- IC50 [1]: 2.5 µM
- IC50 [2]: 1.5 µM
- IC50 [3]: 5.6 µM
- IC50 [4]: 1.7 µM

Compound: CCC(CC)(c1cc(NC(=O)c2cc3cc(NS(C)(=O)=O)ccc3s2)cc(OC)c1)c1cc(OC)cc(OC(F)(F)F)c1 [Example 54, N-(3-methoxy-5-(3-(3-methoxy-5-(trifluoromethoxy)phenyl)pentan-3-yl)phenyl)-5-(methylsulfonamido)benzo[b]thiophene-2-carboxamide]
- IC50 [1]: 0.048 µM
- IC50 [2]: 0.036 µM
- IC50 [3]: 0.17 µM
- IC50 [4]: 0.046 µM

Compound: CC(C)(C)OC(=O)N1CCN(Cc2cccc(C(C)(C)c3cc(Br)cc(NC(=O)c4cc5ccc(NS(C)(=O)=O)cc5[nH]4)c3)c2)CC1 [Example 117, tert-butyl 4-(3-(2-(3-bromo-5-(6-(methylsulfonamido)-1H-indole-2-carboxamido)phenyl)propan-2-yl)benzyl)piperazine-1-carboxylate]
- IC50 [1]: 0.23 µM
- IC50 [2]: 2.2 µM
- IC50 [3]: 2.6 µM
- IC50 [4]: 1.2 µM

Compound: CC(C)(C)OC(=O)n1cccc1-c1cc(NC(=O)c2cc3ccc(NS(C)(=O)=O)cc3[nH]2)cc(-c2ccc(F)cc2F)c1 [Example 350, tert-butyl 2-(2′,4′-difluoro-5-(6-(methylsulfonamido)-1H-indole-2-carboxamido)-[1,1′-biphenyl]-3-yl)-1H-pyrrole-1-carboxylate]
- IC50 [1]: 1.5 µM
- IC50 [2]: 2.3 µM
- IC50 [3]: 6.5 µM

Compound: CS(=O)(=O)Nc1ccc2oc(C(=O)Nc3cccc(-c4ccc(F)cc4F)c3)cc2c1 [Example 238, N-(2′,4′-difluoro-[1,1′-biphenyl]-3-yl)-5-(methylsulfonamido)benzofuran-2-carboxamide]
- IC50 [1]: 0.27 µM
- IC50 [2]: 0.55 µM
- IC50 [3]: 2.4 µM

Compound: CS(=O)(=O)Nc1ccc2cc(C(=O)Nc3cc(-c4cncnc4)cc(-c4ccc(F)cc4F)c3)[nH]c2c1 [Example 360, N-(2′,4′-difluoro-5-(pyrimidin-5-yl)-[1,1′-biphenyl]-3-yl)-6-(methylsulfonamido)-1H-indole-2-carboxamide]
- IC50 [1]: > 10 µM
- IC50 [2]: 1.8 µM
- IC50 [3]: > 10 µM

Compound: CS(=O)(=O)Nc1ccc2cc(C(=O)Nc3cc(-c4ccc(F)cc4F)cc(-c4ccc(F)cc4F)c3)[nH]c2c1 [Example 362, 6-(methylsulfonamido)-N-(2,2″,4,4″-tetrafluoro-[1,1′:3′,1″-terphenyl]-5′-yl)-1H-indole-2-carboxamide]
- IC50 [1]: 0.72 µM
- IC50 [2]: 0.69 µM
- IC50 [3]: 2.6 µM

Compound: CS(=O)(=O)Nc1ccc2sc(C(=O)Nc3cccc(-c4ccc(F)cc4F)c3)cc2c1 [Example 237, N-(2′,4′-difluoro-[1,1′-biphenyl]-3-yl)-5-(methylsulfonamido)benzo[b]thiophene-2-carboxamide]
- IC50 [1]: 0.11 µM
- IC50 [2]: 0.01 µM
- IC50 [3]: 0.61 µM

Compound: CC(C)(c1cc(Br)cc(NC(=O)c2cc3ccc(NS(C)(=O)=O)cc3[nH]2)c1)c1cccc(OCC(N)=O)c1 [Example 18, N-(3-(2-(3-(2-amino-2-oxoethoxy)phenyl)propan-2-yl)-5-bromophenyl)-6-(methylsulfonamido)-1H-indole-2-carboxamide]
- IC50 [1]: 5.4 µM
- IC50 [2]: 8.7 µM
- IC50 [3]: 9.6 µM

Compound: COc1cc(NC(=O)c2cc3cc(NS(C)(=O)=O)ccc3s2)cc(-c2ccc(F)cc2F)c1 [Example 317, N-(2′,4′-difluoro-5-methoxy-[1,1′-biphenyl]-3-yl)-5-(methylsulfonamido)benzo[b]thiophene-2-carboxamide]
- IC50 [1]: 0.28 µM
- IC50 [2]: 0.019 µM
- IC50 [3]: 0.37 µM

Compound: CC(C)(c1cccc(NC(=O)c2cc3ccc(NS(C)(=O)=O)cc3[nH]2)c1)c1cccc(OC(F)(F)F)c1 [Example 8, 6-(methylsulfonamido)-N-(3-(2-(3-(trifluoromethoxy)phenyl)propan-2-yl)phenyl)-1H-indole-2-carboxamide]
- IC50 [1]: 0.12 µM
- IC50 [2]: 0.018 µM
- IC50 [3]: 0.87 µM

Compound: CS(=O)(=O)Nc1ccc2cc(C(=O)Nc3cc(-c4ccc(C(F)(F)F)nc4)cc(-c4ccc(F)cc4F)c3)[nH]c2c1 [Example 358, N-(2′,4′-difluoro-5-(6-(trifluoromethyl)pyridin-3-yl)-[1,1′-biphenyl]-3-yl)-6-(methylsulfonamido)-1H-indole-2-carboxamide]
- IC50 [1]: 1.7 µM
- IC50 [2]: 1.2 µM
- IC50 [3]: 8 µM

Compound: CC(C)(c1ccc(F)cc1)c1cccc(NC(=O)c2cc3ccc(S(C)(=O)=O)cc3[nH]2)c1 [Example 6, N-(3-(2-(4-fluorophenyl)propan-2-yl)phenyl)-6-(methylsulfonyl)-1H-indole-2-carboxamide]
- IC50 [1]: > 10 µM
- IC50 [2]: > 10 µM
- IC50 [3]: > 10 µM

Compound: C#Cc1cc(NC(=O)c2cc3cc(NS(C)(=O)=O)ccc3s2)cc(C(C)(C)c2ccc(F)cc2)c1 [Example 108, N-(3-ethynyl-5-(2-(4-fluorophenyl)propan-2-yl)phenyl)-5-(methylsulfonamido)benzo[b]thiophene-2-carboxamide]
- IC50 [1]: 0.078 µM
- IC50 [2]: 0.073 µM
- IC50 [3]: 0.31 µM

Compound: O=C(Nc1cc(Br)cc(-c2ccc(F)cc2F)c1)c1cc2cc(OC(F)(F)F)ccc2[nH]1 [Example 308, N-(5-bromo-2′,4′-difluoro-[1,1′-biphenyl]-3-yl)-5-(trifluoromethoxy)-1H-indole-2-carboxamide]
- IC50 [1]: 5.6 µM
- IC50 [2]: 8.1 µM
- IC50 [3]: > 10 µM

Compound: CS(=O)(=O)c1ccc2cc(C(=O)Nc3cccc(-c4ccc(F)cc4F)c3)[nH]c2c1 [Example 240, N-(2′,4′-difluoro-[1,1′-biphenyl]-3-yl)-6-(methylsulfonyl)-1H-indole-2-carboxamide]
- IC50 [1]: > 10 µM
- IC50 [2]: > 10 µM
- IC50 [3]: > 10 µM

Compound: CC(C)(c1ccc(F)cc1)c1cccc(NC(=O)c2cc3ccc(NS(C)(=O)=O)cc3s2)c1 [Example 30, N-(3-(2-(4-fluorophenyl)propan-2-yl)phenyl)-6-(methylsulfonamido)benzo[b]thiophene-2-carboxamide]
- IC50 [1]: 0.43 µM
- IC50 [2]: 0.37 µM
- IC50 [3]: 2.9 µM

Compound: CC(C)(c1ccc(F)cc1)c1cc(NC(=O)c2cc3cc(NS(C)(=O)=O)ccc3s2)cc(OC(F)F)c1 [Example 39, N-(3-(difluoromethoxy)-5-(2-(4-fluorophenyl)propan-2-yl)phenyl)-5-(methylsulfonamido)benzo[b]thiophene-2-carboxamide]
- IC50 [1]: 0.048 µM
- IC50 [2]: 0.05 µM
- IC50 [3]: 0.22 µM

Compound: CC(C)(c1cccc(NC(=O)c2cc3ccc(NS(C)(=O)=O)cc3[nH]2)c1)c1ccc(F)cc1F [Example 11, N-(3-(2-(2,4-difluorophenyl)propan-2-yl)phenyl)-6-(methylsulfonamido)-1H-indole-2-carboxamide]
- IC50 [1]: 0.2 µM
- IC50 [2]: 0.06 µM
- IC50 [3]: 1.8 µM

Compound: CC(C)(c1ccc(F)cc1)c1cccc(NC(=O)c2cc3cc(OC(F)(F)F)ccc3[nH]2)c1 [Example 25, N-(3-(2-(4-fluorophenyl)propan-2-yl)phenyl)-5-(trifluoromethoxy)-1H-indole-2-carboxamide]
- IC50 [1]: 3.3 µM
- IC50 [2]: 3.2 µM
- IC50 [3]: 4.2 µM

Compound: C#Cc1cc(NC(=O)c2cc3cc(NS(C)(=O)=O)ccc3s2)cc(C(C)(C)c2ccc(F)cc2F)c1 [Example 109, N-(3-(2-(2,4-difluorophenyl)propan-2-yl)-5-ethynylphenyl)-5-(methylsulfonamido)benzo[b]thiophene-2-carboxamide]
- IC50 [1]: 0.078 µM
- IC50 [2]: 0.09 µM
- IC50 [3]: 0.42 µM

Compound: CC(=O)c1cc(NC(=O)c2cc3ccc(NS(C)(=O)=O)cc3[nH]2)cc(-c2ccc(F)cc2F)c1 [Example 245, N-(5-acetyl-2′,4′-difluoro-[1,1′-biphenyl]-3-yl)-6-(methylsulfonamido)-1H-indole-2-carboxamide]
- IC50 [1]: 1.4 µM
- IC50 [2]: 2.6 µM
- IC50 [3]: 4.9 µM

Compound: CC(C)(c1cccc(NC(=O)c2cc3ccc(N(CC(N)=O)S(C)(=O)=O)cc3[nH]2)c1)c1cc(OCC(N)=O)cc(OC(F)(F)F)c1 [Example 437, N-(3-(2-(3-(2-amino-2-oxoethoxy)-5-(trifluoromethoxy)phenyl)propan-2-yl)phenyl)-6-(N-(2-amino-2-oxoethyl)methylsulfonamido)-1H-indole-2-carboxamide]
- IC50 [1]: 6.3 µM
- IC50 [2]: > 10 µM
- IC50 [3]: > 10 µM

Compound: CCC(CC)(c1ccc(F)cc1)c1cc(Br)cc(NC(=O)c2cc3cc(NS(C)(=O)=O)ccc3s2)c1 [Example 53, N-(3-bromo-5-(3-(4-fluorophenyl)pentan-3-yl)phenyl)-5-(methylsulfonamido)benzo[b]thiophene-2-carboxamide]
- IC50 [1]: 0.026 µM
- IC50 [2]: 0.022 µM
- IC50 [3]: 0.07 µM

Compound: CC(C)(c1cc(Br)cc(NC(=O)c2cc3ccc(NS(C)(=O)=O)cc3[nH]2)c1)c1cccc(OC(F)F)c1 [Example 20, N-(3-bromo-5-(2-(3-(difluoromethoxy)phenyl)propan-2-yl)phenyl)-6-(methylsulfonamido)-1H-indole-2-carboxamide]
- IC50 [1]: 0.29 µM
- IC50 [2]: 0.15 µM
- IC50 [3]: 1.1 µM
